# Data as given in article doi:10.1101/2025.07.04.663216, “A Computational Workflow for Structure-Guided Design of Potent and Selective Kinase Peptide Substrates” (bioRxiv, 2025).
# What was measured:
# MET [1] = molecular target: T1, MET (Homo sapiens, UniProt P08581); test: LIMS-kinase assay kinetic analysis (Km), MET; format: biochemical; conditions: for Km: LIMS-kinase, MS signal of ADP fragment, ATP 100 μM, peptide from 300–400 μM, 2- or 3-fold dilutions, 25°C, Michaelis-Menten fit, repeated twice
# T1 construct: purchased Carna Biosciences 08–151
# T1 sequence (P08581 25-1390): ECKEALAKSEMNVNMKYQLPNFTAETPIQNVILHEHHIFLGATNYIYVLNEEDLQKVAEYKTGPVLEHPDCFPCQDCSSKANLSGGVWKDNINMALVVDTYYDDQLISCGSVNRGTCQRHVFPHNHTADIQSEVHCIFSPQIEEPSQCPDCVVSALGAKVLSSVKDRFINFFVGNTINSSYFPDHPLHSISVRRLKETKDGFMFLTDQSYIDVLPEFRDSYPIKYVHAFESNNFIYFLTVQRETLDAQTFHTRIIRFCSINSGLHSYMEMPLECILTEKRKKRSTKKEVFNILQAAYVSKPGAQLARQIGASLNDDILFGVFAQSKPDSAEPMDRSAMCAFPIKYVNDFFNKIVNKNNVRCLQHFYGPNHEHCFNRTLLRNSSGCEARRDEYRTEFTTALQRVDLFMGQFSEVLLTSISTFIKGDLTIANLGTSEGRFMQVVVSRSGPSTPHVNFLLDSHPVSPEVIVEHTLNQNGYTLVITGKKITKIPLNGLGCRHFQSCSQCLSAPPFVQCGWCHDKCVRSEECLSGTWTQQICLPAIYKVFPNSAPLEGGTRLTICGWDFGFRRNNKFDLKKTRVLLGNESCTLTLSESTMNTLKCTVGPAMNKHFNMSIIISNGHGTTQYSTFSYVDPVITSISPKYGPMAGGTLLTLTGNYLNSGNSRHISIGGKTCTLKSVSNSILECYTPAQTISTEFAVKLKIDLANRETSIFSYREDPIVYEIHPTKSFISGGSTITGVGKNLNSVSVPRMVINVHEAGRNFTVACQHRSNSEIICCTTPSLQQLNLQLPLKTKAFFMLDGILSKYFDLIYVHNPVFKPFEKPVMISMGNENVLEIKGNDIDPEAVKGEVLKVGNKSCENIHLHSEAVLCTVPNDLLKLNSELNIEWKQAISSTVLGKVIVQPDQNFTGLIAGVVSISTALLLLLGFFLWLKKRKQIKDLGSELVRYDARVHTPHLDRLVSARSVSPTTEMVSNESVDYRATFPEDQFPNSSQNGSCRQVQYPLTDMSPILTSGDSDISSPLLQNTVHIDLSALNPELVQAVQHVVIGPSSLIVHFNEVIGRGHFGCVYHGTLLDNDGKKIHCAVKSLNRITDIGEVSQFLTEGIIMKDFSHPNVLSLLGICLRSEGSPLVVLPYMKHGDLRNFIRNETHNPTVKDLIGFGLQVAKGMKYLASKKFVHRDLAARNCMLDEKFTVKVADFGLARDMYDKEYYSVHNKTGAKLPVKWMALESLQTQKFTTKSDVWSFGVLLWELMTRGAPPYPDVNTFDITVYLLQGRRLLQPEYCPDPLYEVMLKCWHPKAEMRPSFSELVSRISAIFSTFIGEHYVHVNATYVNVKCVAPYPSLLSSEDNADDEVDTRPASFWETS
# Description: (§1) Figures 3A and 3B illustrate the schematic of a kinase assay reaction and the multiple reaction monitoring (MRM) phosphorylation detection system employed in the LIMS-kinase assay. The MRM setup comprises a RapidFire liquid chromatography sampler (Agilent) coupled to a triple quadrupole mass spectrometer (AB Sciex 6500). Quadrupole 1 (Q1) acts as a mass filter, selecting precursor ions based on their mass-to-charge ratios. Q2 functions as a collision cell, fragmenting these precursor ions into product ions. Q3 serves as an additional mass filter, specifically monitoring desired product ion fragments originating from the Q1-selected parent ion (Figure 3B).
# (§2) To determine kinase activity, we directly measured ADP production by following specific ADP ion fragments rather than quantifying phosphorylated peptide fragments as in our original published LIMS-kinase assay. We chose to measure ADP production rather than the phosphorylated peptide product to avoid potential variations in ionization efficiency or fragmentation patterns that can arise from differences in amino acid sequences and physicochemical properties of different peptide substrates. This ensures not only a more direct and unbiased comparison of potency across different peptides, but also broad applicability of optimized substrates across different assay platforms. Initial tests confirmed that we were able to selectively detect an ADP fragment in kinase/peptide reactions (Figure S5). The ADP signal was enzyme concentration- and time-dependent, consistent with the expected response of a functional assay. […] We evaluated two enzyme concentrations with the objective of selecting the concentration where activity was linear to 60 minutes with a strong signal (Figure S5). […]
# (§3) Final working concentrations of enzyme varied by kinase. […] Activity was evaluated by measuring MS signal of ADP-specific fragment ion. Experiments were repeated twice, with results expressed as mean ± standard deviation.
# (§4) Km was evaluated by linear regression of the first three time-points at each concentration of peptide. […]
# ROS1 [2] = molecular target: T2, ROS1 (Homo sapiens, UniProt P08922); test: Peptide selectivity assay (LIMS-kinase), ROS1; format: biochemical; conditions: LIMS-kinase ADP production; ROS1 0.63 nM, peptides 20.3 μM, ATP 100 μM, 30 min, room temperature; repeated twice
# T2 construct: purchased Carna Biosciences 08–163
# Method: (§5) All components equilibrated to 25°C prior to setting up reactions. All reagents added manually. Peptides added to 384-well microplates (Costar 3657 round bottom polypropylene). A pre-mixed buffer, enzyme, and ATP solution was added to initiate reaction. Reaction was quenched with 1% formic acid (final) following 30-minute incubation at room temperature. Kinase activity was evaluated by measuring MS signal of ADP-specific fragment ion. Experiments were repeated twice, with results expressed as mean ± standard deviation. Time 0 (background) values were subtracted from subsequent time-points.
# (§6) RapidFire liquid chromatography and mass spectrometry methods were performed as previously described.
# MET [3] = molecular target: T1, MET; test: ADP-Glo kinase assay, MET; format: biochemical; conditions: ADP-Glo luminescence; vs parent EEPLYWSFPAK; enzyme 1.25–10 nM, ATP 10 μM, peptide 1 μM, 90 min, 25°C; repeated twice, mean
# Description: (§7) To experimentally evaluate the computationally optimized peptide sequences, we chose five kinases based on commercial availability. Using the ipAE, pLDDT, and ipTM scores, we ranked the Subtimizer-designed sequences, and for each kinase we selected two to five peptides for synthesis and experimental testing. We evaluated the activity of the peptides using the ADP-Glo kinase assay, a luminescence-based method that quantifies ADP production as a measure of kinase activity. First, we measured the ADP-Glo signals for the parental peptide and the baseline (no enzyme background) for the five kinases. […] The varying signal intensities across different kinases reflect differences in their specific activities and the efficiency of the parent peptide substrates.
# (§8) ADP-Glo Kit (ADP-Glo™ Kinase Assay, Cat#V6930) was obtained from Promega. The kinases ALK (#08–518), MET (#08–151), ROS1 (#08–163), and EGFR L858R (#08–502) were products of Carna Biosciences. SRC was expressed and purified as previously reported. Substrate peptides were obtained from Biomatik Corporation (Wilmington, DE, USA). All components were equilibrated to 25°C prior to setting up reactions in 384-well microplates (White ProxiPlate 384-shallow well Plus). […] Experiments were repeated twice with results expressed as mean ± standard deviation. Luminescence was detected on a Synergy Neo2 plate reader.
# ROS1 [4] = molecular target: T2, ROS1; test: LIMS-kinase assay kinetic analysis (Km), ROS1; format: biochemical; conditions: for Km: LIMS-kinase, MS signal of ADP fragment, ATP 100 μM, peptide from 300–400 μM, 2- or 3-fold dilutions, 25°C, Michaelis-Menten fit, repeated twice
# Description: as §1, §2, §3, §4
# EGFR L858R = test: ADP-Glo kinase assay, EGFR L858R; format: biochemical; conditions: ADP-Glo luminescence; vs parent KEEIYFFF; enzyme 1.25–10 nM, ATP 10 μM, peptide 1 μM, 90 min, 25°C; repeated twice, mean
# Description: as §7, §8
# ALK [5] = molecular target: T3, ALK (Homo sapiens, UniProt Q9UM73); test: LIMS-kinase assay kinetic analysis (Km), ALK; format: biochemical; conditions: MS signal of ADP fragment, ATP 100 μM, peptide from 300–400 μM, 2- or 3-fold dilutions, 25°C, Michaelis-Menten fit, repeated twice
# T3 construct: purchased Carna Biosciences 08–518
# T3 sequence (Q9UM73 19-1620): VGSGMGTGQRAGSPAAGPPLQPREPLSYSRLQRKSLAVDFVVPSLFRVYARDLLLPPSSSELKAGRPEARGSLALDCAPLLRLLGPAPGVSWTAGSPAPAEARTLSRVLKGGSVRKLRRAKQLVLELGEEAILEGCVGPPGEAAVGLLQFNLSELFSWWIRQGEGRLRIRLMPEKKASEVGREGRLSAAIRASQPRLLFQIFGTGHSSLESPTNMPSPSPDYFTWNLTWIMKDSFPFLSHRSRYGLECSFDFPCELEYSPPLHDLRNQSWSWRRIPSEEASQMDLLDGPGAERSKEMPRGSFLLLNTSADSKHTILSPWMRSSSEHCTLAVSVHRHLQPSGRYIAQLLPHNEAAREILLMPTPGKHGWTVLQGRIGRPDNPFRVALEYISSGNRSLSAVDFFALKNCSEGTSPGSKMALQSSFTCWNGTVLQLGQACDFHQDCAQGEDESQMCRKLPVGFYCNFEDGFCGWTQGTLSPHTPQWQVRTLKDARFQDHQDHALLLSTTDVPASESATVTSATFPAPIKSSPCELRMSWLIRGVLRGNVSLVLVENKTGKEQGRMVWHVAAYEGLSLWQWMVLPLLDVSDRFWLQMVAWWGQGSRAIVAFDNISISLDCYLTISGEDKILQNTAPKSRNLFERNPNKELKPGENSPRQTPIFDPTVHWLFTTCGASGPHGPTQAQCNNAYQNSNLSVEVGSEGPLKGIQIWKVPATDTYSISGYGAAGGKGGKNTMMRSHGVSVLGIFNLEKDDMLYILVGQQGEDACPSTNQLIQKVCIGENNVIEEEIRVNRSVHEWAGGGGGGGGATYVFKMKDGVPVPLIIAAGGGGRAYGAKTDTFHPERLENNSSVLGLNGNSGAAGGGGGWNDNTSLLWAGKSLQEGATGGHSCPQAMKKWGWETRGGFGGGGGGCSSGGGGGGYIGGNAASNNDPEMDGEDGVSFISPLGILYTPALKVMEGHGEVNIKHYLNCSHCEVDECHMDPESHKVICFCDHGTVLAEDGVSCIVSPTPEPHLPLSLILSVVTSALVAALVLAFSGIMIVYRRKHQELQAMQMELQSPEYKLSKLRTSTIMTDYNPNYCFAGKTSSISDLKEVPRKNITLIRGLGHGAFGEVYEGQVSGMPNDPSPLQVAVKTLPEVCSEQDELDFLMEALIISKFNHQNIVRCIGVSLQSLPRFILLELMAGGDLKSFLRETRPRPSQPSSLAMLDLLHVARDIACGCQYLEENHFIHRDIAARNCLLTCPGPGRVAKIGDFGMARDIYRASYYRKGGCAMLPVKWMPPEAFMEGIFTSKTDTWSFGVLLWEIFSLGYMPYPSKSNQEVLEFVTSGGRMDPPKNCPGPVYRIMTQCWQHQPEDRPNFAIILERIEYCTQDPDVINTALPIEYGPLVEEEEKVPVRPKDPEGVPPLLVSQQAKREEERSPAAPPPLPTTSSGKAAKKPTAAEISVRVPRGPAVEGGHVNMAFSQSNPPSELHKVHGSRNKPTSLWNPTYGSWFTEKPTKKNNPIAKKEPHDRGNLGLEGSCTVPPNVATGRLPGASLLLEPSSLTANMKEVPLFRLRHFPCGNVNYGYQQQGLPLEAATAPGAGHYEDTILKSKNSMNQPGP
# Description: as §1
# To determine kinase activity, we directly measured ADP production by following specific ADP ion fragments rather than quantifying phosphorylated peptide fragments as in our original published LIMS-kinase assay. […] We evaluated two enzyme concentrations with the objective of selecting the concentration where activity was linear to 60 minutes with a strong signal (Figure S5). […]
# as §3, §4
# ALK [6] = molecular target: T3, ALK; test: ADP-Glo kinase assay, ALK; format: biochemical; conditions: ADP-Glo luminescence; vs parent KSRGDYMTMQIG (axltide); enzyme 1.25–10 nM, ATP 10 μM, peptide 1 μM, 90 min, 25°C; repeated twice, mean
# Description: as §7, §8
# [7] = Peptide solubility observed in Km study; format: physicochemical; conditions: observation in the Km study with EGFR L858R; peptide concentrations started at 300–400 μM
# Description: We ran LIMS-kinase assays using a range of peptide concentrations. We plotted the initial reaction rate for each concentration to generate Michaelis-Menten curves. […] We could not run a successful Km study with EGFR L858R due to the insolubility of the parental MS-csktide1 peptide at high concentrations, similar to our previous observation.
# ROS1 [8] = molecular target: T2, ROS1; test: ADP-Glo kinase assay, ROS1; format: biochemical; conditions: ADP-Glo luminescence; vs parent EEPLYWSFPAK; enzyme 1.25–10 nM, ATP 10 μM, peptide 1 μM, 90 min, 25°C; repeated twice, mean
# Description: as §7, §8
# MET [9] = molecular target: T1, MET; test: Peptide selectivity assay (LIMS-kinase), MET; format: biochemical; conditions: LIMS-kinase ADP production; MET 5 nM, peptides 134 μM, ATP 100 μM, 30 min, room temperature; repeated twice
# Method: as §5, §6
sequence,measurement,setting,value
EEPAYVALPAK [met-s1],Km,MET [1],134 µM
same,reduction in Km vs parental MS-srctide,"MET [1]; MET, Km 288 to 134 µM",over 2 fold
same,reduction in ROS1 kinase activity compared to ros1-s2,ROS1 [2],over 11 fold
same,relative percentage change (increase) in kinase activity compared to parent peptide,MET [3],approximately 41%
"EEPLYVALPAP [met-s2, designed MET peptide substrate …]",relative percentage change (increase) in kinase activity compared to parent peptide,MET [3],~11%
"EEPLYWSFPAK [MS-srctide, parental peptide substrate … for many kinases including MET and ROS1, reference compound]",Km,MET [1],288 µM
same,Km,ROS1 [4],47.6 µM
"EPEDYAPV [egfr-s1, designed EGFR L858R peptide substrate EPEDYAPV]",relative percentage change (increase) in kinase activity compared to parent peptide,EGFR L858R,about 10%
EPEGYAPL [egfr-s2],relative percentage change (increase) in kinase activity compared to parent peptide,EGFR L858R,approximately 5%
"HDPEDYMWVEMR [alk-s3, designed ALK peptide substrate …]",Km,ALK [5],14.1 µM
"HSPEDYMWVEME [alk-s5, designed ALK peptide substrate …]",relative percentage change (increase) in kinase activity compared to parent peptide,ALK [6],146%
"KEEIYFFF [MS-csktide1, parental peptide substrate KEEIYFFF used for EGFR L858R]",solubility at high concentrations,[7],insolubility
KEPFYMRLKPK [ros1-s2],Km,ROS1 [4],20.3 µM
same,improvement in apparent binding affinity (Km) vs parental MS-srctide,"ROS1 [4]; ROS1, Km 47.59 to 20.30 µM",> 2 fold
same,relative percentage change (increase) in kinase activity compared to parent peptide,ROS1 [8],about 35%
same,reduction in MET kinase activity compared to met-s1,MET [9],over 4 fold
"KSRGDYMTMQIG [MS-axltide, parental peptide substrate … used for ALK, reference compound]",Km,ALK [5],18.4 µM
"PDPDDYMLMEIG [alk-s4, designed ALK peptide substrate …]",relative percentage change (increase) in kinase activity compared to parent peptide,ALK [6],130%
